# According to ChEMBL document CHEMBL1201862, “PubChem BioAssay data set” (2004):
# Activity calls are given as the source filed them.
# What was measured:
# [1] = target: T1, Estrogen receptor (Homo sapiens, UniProt P03372); assay: potentiators of ERα–SRC-1 coactivator binding, dose response, biochemical, TR-FRET, ERα LBD (AID 737)
# T1 sequence (P03372 whole entry): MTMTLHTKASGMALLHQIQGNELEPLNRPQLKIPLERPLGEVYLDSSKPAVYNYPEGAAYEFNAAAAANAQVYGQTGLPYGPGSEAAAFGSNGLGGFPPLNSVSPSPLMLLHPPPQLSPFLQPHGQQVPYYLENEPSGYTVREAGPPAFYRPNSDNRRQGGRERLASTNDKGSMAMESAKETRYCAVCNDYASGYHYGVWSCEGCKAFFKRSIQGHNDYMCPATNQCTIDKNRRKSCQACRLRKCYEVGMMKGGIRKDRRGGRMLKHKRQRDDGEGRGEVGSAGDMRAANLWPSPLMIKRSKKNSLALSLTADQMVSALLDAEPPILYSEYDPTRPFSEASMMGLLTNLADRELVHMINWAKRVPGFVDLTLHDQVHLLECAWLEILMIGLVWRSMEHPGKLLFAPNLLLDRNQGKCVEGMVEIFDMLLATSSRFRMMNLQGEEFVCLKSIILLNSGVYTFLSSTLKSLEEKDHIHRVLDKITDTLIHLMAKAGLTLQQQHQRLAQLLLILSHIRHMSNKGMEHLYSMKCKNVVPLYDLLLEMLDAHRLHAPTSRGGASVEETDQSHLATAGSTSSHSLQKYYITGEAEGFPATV
# [2] = target: T1, Estrogen receptor
# [3] = target: T2, Protein skinhead-1 (Caenorhabditis elegans, UniProt P34707); assay type: functional
# T2 sequence (P34707 whole entry): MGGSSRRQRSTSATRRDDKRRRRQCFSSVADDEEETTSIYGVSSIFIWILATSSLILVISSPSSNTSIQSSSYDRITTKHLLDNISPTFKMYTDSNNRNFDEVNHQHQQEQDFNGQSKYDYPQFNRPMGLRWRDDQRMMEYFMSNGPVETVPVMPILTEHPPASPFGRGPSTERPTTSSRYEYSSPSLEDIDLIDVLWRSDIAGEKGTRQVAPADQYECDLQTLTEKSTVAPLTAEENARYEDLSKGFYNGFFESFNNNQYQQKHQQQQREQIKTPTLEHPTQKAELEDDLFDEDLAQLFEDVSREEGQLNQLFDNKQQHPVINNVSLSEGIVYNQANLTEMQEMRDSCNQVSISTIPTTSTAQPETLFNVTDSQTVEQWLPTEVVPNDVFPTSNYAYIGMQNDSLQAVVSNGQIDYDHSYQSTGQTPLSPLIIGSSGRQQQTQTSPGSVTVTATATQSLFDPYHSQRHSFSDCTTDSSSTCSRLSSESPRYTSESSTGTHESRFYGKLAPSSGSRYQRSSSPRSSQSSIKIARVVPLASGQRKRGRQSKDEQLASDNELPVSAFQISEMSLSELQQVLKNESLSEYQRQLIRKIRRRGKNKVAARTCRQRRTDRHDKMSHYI
# [4] = target: Aryl hydrocarbon receptor (Homo sapiens, UniProt P35869); assay: Luminescence-based cell-based high throughput dose response assay for activators of the Aryl Hydrocarbon Receptor (AHR). [Related pubchem assays: 2796 (Primary screen (AHR activators in singlicate)), 2845 (Confirmation screen (AHR activators in triplicate)), 434939 (Counterscreen (PXR activators in triplicate)), 2804 (Summary (AHR activators))]; assay type: ADME
# Sequence of Aryl hydrocarbon receptor (P35869 whole entry): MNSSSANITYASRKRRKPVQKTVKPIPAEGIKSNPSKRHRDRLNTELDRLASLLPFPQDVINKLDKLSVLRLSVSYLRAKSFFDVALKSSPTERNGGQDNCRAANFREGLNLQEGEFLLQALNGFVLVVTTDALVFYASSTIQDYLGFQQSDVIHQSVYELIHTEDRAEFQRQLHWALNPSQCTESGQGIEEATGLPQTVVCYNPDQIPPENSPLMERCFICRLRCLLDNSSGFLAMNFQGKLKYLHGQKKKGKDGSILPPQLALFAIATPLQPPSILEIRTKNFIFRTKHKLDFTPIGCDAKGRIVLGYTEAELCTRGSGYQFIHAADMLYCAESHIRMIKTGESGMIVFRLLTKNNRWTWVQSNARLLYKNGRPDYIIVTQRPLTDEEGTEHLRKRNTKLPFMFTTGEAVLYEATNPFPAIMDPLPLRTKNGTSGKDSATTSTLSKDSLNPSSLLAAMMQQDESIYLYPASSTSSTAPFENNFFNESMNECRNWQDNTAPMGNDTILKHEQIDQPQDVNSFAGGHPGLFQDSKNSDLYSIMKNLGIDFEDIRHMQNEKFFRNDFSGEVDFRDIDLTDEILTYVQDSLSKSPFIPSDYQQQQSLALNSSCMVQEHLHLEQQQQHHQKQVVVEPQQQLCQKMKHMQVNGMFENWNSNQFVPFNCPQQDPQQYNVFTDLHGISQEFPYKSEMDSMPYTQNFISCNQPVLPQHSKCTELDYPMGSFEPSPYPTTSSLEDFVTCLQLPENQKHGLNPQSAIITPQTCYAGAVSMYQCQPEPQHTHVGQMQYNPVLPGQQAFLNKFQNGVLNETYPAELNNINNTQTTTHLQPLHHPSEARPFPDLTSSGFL
# [5] = target: Fructose-bisphosphate aldolase (Mycobacterium tuberculosis, UniProt P9WQA3); assay: Fluorescence-based biochemical high throughput dose response assay for inhibitors of the fructose-bisphosphate aldolase (FBA) of M. tuberculosis.; assay type: functional
# Sequence of Fructose-bisphosphate aldolase (P9WQA3 whole entry): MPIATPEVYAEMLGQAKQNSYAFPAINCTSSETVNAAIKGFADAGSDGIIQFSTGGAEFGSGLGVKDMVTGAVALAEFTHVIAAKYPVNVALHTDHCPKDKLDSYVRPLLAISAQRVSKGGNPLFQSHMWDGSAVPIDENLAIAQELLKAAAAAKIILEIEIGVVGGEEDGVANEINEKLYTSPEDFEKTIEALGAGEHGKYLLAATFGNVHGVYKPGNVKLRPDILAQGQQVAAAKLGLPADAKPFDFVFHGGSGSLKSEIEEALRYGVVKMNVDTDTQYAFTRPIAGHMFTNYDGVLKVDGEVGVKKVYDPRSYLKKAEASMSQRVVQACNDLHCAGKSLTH
# [6] = A cytotoxicity screen of small molecule inhibitors of the PhoP region in Salmonella typhi identified in the primary screen. [Related pubchem assays: 1850, 1864, 1985 ]; assay type: functional
# [7] = target: NADPH oxidase 1 (Homo sapiens, UniProt Q9Y5S8); assay type: functional, cell-based;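 note: Cell-based assay with luminescence read-out, IC50 derived from inhibitor dose-response curves; intracellular ROS from endogenous NOX1 in intact HT29 colon cancer cells; potency of inhibitors that lower the ROS luminescence signal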
# Sequence of NADPH oxidase 1 (Q9Y5S8 whole entry): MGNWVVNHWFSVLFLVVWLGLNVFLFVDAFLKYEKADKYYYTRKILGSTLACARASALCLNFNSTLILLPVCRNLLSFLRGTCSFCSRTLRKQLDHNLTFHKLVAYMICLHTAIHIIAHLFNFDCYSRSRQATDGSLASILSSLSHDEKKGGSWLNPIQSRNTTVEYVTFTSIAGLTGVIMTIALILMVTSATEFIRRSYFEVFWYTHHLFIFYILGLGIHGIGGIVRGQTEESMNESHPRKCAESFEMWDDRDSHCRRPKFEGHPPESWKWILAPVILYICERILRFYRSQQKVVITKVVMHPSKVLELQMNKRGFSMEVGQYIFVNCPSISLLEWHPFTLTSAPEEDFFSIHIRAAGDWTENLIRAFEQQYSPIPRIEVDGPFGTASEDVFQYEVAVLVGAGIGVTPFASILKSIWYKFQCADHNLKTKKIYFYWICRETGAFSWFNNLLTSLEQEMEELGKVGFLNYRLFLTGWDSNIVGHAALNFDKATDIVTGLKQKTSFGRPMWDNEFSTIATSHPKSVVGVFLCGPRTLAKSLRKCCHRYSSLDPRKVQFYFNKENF
# [8] = A High Throughput Confirmatory Assay used to Identify Novel Compounds that Inhibit Mycobacterium Tuberculosis in the absence of Glycerol.; assay type: functional
# [9] = microbe, parasite or virus in culture; assay type: functional; details: Mycobacterium tuberculosis
# [10] = target: T3, Protein Tat (Human immunodeficiency virus type 1 group M subtype B (isolate HXB2)(HIV-1), UniProt P04608); assay type: functional;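 note: tat binding to TAR RNA read out by fluorescence polarization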
# T3 sequence (P04608 whole entry): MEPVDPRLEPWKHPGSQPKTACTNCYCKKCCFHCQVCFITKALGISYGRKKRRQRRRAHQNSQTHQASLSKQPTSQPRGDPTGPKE
# [11] = THP-1 cell cytotoxicity, dose response, cytotoxicity control for Vif-APOBEC3G degradation inhibitor project, THP-1 cells (AID 1117359); assay type: functional; details: Human immunodeficiency virus 1, THP-1
# [12] = target: Serine/threonine-protein phosphatase PP1-alpha catalytic subunit (Homo sapiens, UniProt P62136); assay: PP1 phosphatase inhibitors, dose response, biochemical, fluorescence (AID 2394)
# Sequence of Serine/threonine-protein phosphatase PP1-alpha catalytic subunit (P62136 whole entry): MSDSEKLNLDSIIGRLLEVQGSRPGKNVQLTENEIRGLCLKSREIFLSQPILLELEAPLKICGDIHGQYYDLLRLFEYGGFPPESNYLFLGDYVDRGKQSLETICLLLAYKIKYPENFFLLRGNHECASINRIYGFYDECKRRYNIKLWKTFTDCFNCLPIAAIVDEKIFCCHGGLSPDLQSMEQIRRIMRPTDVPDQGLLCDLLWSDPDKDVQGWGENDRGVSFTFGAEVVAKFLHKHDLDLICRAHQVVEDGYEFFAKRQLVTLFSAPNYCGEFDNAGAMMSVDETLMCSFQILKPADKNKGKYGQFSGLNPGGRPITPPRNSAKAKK
# [13] = target: Serine/threonine-protein phosphatase (Homo sapiens, UniProt Q9BPW0); assay: PP5 phosphatase inhibitors, dose response, biochemical, fluorescence (AID 2395)
# Sequence of Serine/threonine-protein phosphatase (Q9BPW0 whole entry): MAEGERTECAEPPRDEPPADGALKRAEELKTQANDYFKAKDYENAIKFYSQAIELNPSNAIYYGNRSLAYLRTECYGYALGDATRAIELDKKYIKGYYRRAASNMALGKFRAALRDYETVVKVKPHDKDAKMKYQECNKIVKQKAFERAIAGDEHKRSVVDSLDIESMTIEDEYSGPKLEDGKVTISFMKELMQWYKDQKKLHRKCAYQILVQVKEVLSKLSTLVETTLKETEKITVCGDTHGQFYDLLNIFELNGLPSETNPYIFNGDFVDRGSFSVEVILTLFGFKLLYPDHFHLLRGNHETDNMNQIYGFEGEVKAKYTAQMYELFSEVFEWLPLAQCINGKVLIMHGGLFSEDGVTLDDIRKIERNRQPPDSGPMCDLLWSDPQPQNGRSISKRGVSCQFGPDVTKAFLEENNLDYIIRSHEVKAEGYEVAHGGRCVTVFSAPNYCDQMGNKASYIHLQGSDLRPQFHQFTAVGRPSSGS
smiles,measurement,setting,value
O=C(Cn1c(=O)oc2cc(S(=O)(=O)N3CCCCCC3)ccc21)NC1CCCCC1,EC50,[1],12.9 µM (not active)
N#Cc1c(N)oc(-c2ccc3c(c2)OCO3)c1-c1ccc2c(c1)OCO2,IC50,[2],> 50 µM (not active)
same,IC50,[3],> 100 µM (inactive)
O=C(Nc1ccon1)c1cnc2sccn2c1=O,EC50,[4],1.85 µM (active)
same,IC50,[5],4.61 µM (active)
COc1ccc(N2CCN(c3cc(C)c4ccc(O)cc4n3)CC2)cc1,EC50,[6],> 50 µM (active)
same,EC50,[4],3.47 µM (active)
Cc1ccc(S(=O)(=O)c2ccc3c(c2)Sc2ccc(Cl)cc2N3)cc1,IC50,[7],5.25 µM (active)
COCCOC(=O)c1ccc(NC(=O)COc2ccc([N+](=O)[O-])cc2)cc1,IC50,[8],> 100 µM (active)
Oc1ccc2ccccc2c1C1Nc2cccc3cccc(c23)N1,IC50,[8],> 100 µM (active)
same,CC50,[9],> 40 µM (active)
same,IC50,[10],41.7 µM (inconclusive)
same,CC50,[11],> 40 µM (active)
COC(=O)CCC(=O)OC1(C)C(=O)C=C2C=C(C3CC3)N(C3CCCC3)C=C2C1=O (stereo not given),IC50,[12],> 67 µM (not active)
same,IC50,[13],11 µM (not active)
